Laboratory results as given in BindingDB's records for doi:10.1021/acs.jnatprod.6b00262 (Kindai University, 2016).
pEC50: −log10 of the molar value.

test: Antagonist activity at human EGFP-fused CCR3 expressed in mouse L1.2 cells assessed as inhibition of CCL11-induced chemotaxis measured after 1.5 hrs by PicoGreen dsDNA reagent-based assay

| pEC50 | SMILES |
| --- | --- |
| 5.80 | C/C=C/c1cc(OC)c2c(c1)[C@@H](C)[C@H](c1cc(OC)c(O)c(OC)c1)O2 |
| 5.85 | C=CCc1cc(OC)c(O[C@@H](C)[C@H](OC(C)=O)c2ccc(OC)c(OC)c2)c(OC)c1 |
| 5.82 | C=CCc1cc(OC)c(O[C@H](C)[C@@H](O)c2cc(OC)c(O)c(OC)c2)c(OC)c1 |
| 6.11 | COC(=O)[C@H](Cc1ccc([N+](=O)[O-])cc1)NC(=O)c1cccc2ccccc12 [(S)-2-[(Naphthalene-1-carbonyl)-amino]-3-(4-nitro-phenyl)-propionic acid methyl ester] |
